Legend:
Conditions in all cases: average where tested multiple times
BCAT2 [1] = target: T1, BCAT2 (Homo sapiens, UniProt O15382); experiment: BCAT2 in vitro cell inhibition using engineered A549 cells (KMV cell assay, 13C6-KMV by LC-MS/MS); assay type: cell-based; set-up: The result was an engineered A549 cell line that expressed endogenous BCAT2; endogenous in cells; host or cells: A549 cells with MUT and BCAT1 knocked out by CRISPR/CAS9
T1 sequence (O15382 28-392): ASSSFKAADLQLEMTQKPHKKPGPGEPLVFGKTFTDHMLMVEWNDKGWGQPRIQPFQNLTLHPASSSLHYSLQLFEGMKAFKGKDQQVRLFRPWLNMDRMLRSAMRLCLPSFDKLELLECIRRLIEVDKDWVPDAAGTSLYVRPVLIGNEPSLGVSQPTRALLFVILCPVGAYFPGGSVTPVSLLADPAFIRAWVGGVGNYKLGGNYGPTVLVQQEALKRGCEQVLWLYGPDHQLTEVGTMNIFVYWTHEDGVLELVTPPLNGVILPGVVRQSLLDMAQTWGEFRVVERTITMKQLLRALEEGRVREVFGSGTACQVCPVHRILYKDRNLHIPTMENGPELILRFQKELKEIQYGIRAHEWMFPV

BCAT2 [2] = target: T1, BCAT2; experiment: BCAT2 in vitro enzyme inhibition assay (resazurin/diaphorase-coupled fluorescence); assay type: biochemical
In short: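 Coupled fluorescence readout: glutamate formed from L-leucine/α-ketoglutarate transamination drives GDH/NAD/diaphorase reduction of resazurin (Ex 540/Em 590). Human BCAT2 was first exposed 1 h at room temperature to compound, top final 100 μM in 3-fold, 10-point series; substrate reaction ran 1 h before SDS quench, in technical duplicate with DMSO max and enzyme-free min controls.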

hBCAT1 = target: T2, hBCAT1 (Homo sapiens, UniProt P54687); experiment: BCAT1 in vitro enzyme inhibition assay (resazurin/diaphorase-coupled fluorescence); assay type: biochemical
T2 sequence (P54687 1-386): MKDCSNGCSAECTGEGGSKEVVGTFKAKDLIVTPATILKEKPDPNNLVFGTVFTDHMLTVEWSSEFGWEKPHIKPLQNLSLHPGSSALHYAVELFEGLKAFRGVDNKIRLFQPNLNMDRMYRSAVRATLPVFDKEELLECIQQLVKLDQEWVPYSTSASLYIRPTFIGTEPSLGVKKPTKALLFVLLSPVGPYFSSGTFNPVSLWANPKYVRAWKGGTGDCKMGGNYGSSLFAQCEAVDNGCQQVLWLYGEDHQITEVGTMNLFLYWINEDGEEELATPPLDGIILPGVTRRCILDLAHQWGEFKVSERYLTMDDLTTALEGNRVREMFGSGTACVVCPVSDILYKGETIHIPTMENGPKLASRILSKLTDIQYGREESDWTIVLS
In short: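 Human BCAT1 activity read by resazurin/diaphorase-coupled fluorescence. Compounds added from 50× DMSO stocks at 1:50, giving 10-point 3-fold titrations from 100 μM top final concentration. Run in technical duplicate; repeat tests averaged.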

Row | IC50 (BCAT2 [1]) [nM] | IC50 (BCAT2 [2]) [nM] | IC50 (hBCAT1) [nM] | SMILES
1 | ≤ 100 | ≤ 100 | < 500 | Cc1cn[nH]c1-c1cc2c(cn1)nc(-c1ccccc1F)n2[C@@H]1CCC[C@H](NC(=O)c2ncc(Cl)s2)C1 [Example 186, 5-chloro-N-((1S,3R)-3-(2-(2-fluorophenyl)-6-(4-methyl-1H-pyrazol-5-yl)-1H-imidazo[4,5-c]pyridin-1-yl)cyclohexyl)thiazole-2-carboxamide]
2 | 100 to 500 | 100 to 500 | 1000 to 5000 | CC(C)C(=O)c1nc2cnc(-c3nc[nH]n3)cc2n1[C@@H]1CCC[C@H](NC(=O)c2ncc(Cl)s2)C1 [Example 187, 5-chloro-N-((1S,3R)-3-(2-isobutyryl-6-(1H-1,2,4-triazol-3-yl)-1H-imidazo[4,5-c]pyridin-1-yl)cyclohexyl)thiazole-2-carboxamide]
3 | 100 to 500 | ≤ 100 | 1000 to 5000 | O=C(N[C@H]1CCC[C@@H](n2c(-c3ccccc3F)nc3cnc(-c4cccnn4)cc32)C1)c1ncc(Cl)s1 [Example 188, 5-chloro-N-((1S,3R)-3-(2-(2-fluorophenyl)-6-(pyridazin-3-yl)-1H-imidazo[4,5-c]pyridin-1-yl)cyclohexyl)thiazole-2-carboxamide]
4 | ≤ 100 | ≤ 100 | < 500 | O=C(N[C@H]1CCC[C@@H](n2c(-c3ccccc3F)nc3cnc(-c4cnn[nH]4)cc32)C1)c1ncc(Cl)s1 [Example 189, 5-chloro-N-((1S,3R)-3-(2-(2-fluorophenyl)-6-(1H-1,2,3-triazol-5-yl)-1H-imidazo[4,5-c]pyridin-1-yl)cyclohexyl)thiazole-2-carboxamide]
5 | > 1000 | ≤ 100 | 1000 to 5000 | O=C(N[C@H]1CCC[C@@H](n2c(Oc3ccccc3F)nc3cnc(-c4nc[nH]n4)cc32)C1)c1ncc(Cl)s1 [Example 192, 5-chloro-N-((1S,3R)-3-(2-(2-fluorophenoxy)-6-(1H-1,2,4-triazol-3-yl)-1H-imidazo[4,5-c]pyridin-1-yl)cyclohexyl)thiazole-2-carboxamide]
6 | ≤ 100 | ≤ 100 | < 500 | O=C(N[C@H]1CCC[C@@H](n2c(-c3ccccc3F)nc3cnc(N4CCCC4CO)cc32)C1)c1ncc(Cl)s1 (stereo partly drawn) [Example 196, 5-chloro-N-((1S,3R)-3-(2-(2-fluorophenyl)-6-(2-(hydroxymethyl)pyrrolidin-1-yl)-1H-imidazo[4,5-c]pyridin-1-yl)cyclohexyl)thiazole-2-carboxamide]
7 | > 1000 | ≤ 100 | > 5000 | O=C(N[C@H]1CCC[C@@H](n2c(-c3ccccc3F)nc3cnc(N4CCC(O)C4)cc32)C1)c1ncc(Cl)s1 (stereo partly drawn) [Example 199, 5-chloro-N-((1S,3R)-3-(2-(2-fluorophenyl)-6-(3-hydroxypyrrolidin-1-yl)-1H-imidazo[4,5-c]pyridin-1-yl)cyclohexyl)thiazole-2-carboxamide]
8 | ≤ 100 | ≤ 100 | < 500 | O=C(N[C@H]1CCC[C@@H](n2c(-c3ccccc3F)nc3cnc(-c4noc(=O)[nH]4)cc32)C1)c1ncc(Cl)s1 [Example 202, 5-chloro-N-((1S,3R)-3-(2-(2-fluorophenyl)-6-(5-oxo-4,5-dihydro-1,2,4-oxadiazol-3-yl)-1H-imidazo[4,5-c]pyridin-1-yl)cyclohexyl)thiazole-2-carboxamide]
9 | 100 to 500 | ≤ 100 | < 500 | O=C(N[C@H]1CCC[C@@H](n2c(-c3ccccc3F)nc3cnc(-c4n[nH]c(=O)o4)cc32)C1)c1ncc(Cl)s1 [Example 203, 5-chloro-N-((1S,3R)-3-(2-(2-fluorophenyl)-6-(5-oxo-4,5-dihydro-1,3,4-oxadiazol-2-yl)-1H-imidazo[4,5-c]pyridin-1-yl)cyclohexyl)thiazole-2-carboxamide]
10 | 100 to 500 | ≤ 100 | 500 to 1000 | O=C(N[C@H]1CCC[C@@H](n2c(-c3ccccc3F)nc3cnc(-c4ccccc4)cc32)C1)c1ncc(Cl)s1 [Example 204, 5-chloro-N-((1S,3R)-3-(2-(2-fluorophenyl)-6-phenyl-1H-imidazo[4,5-c]pyridin-1-yl)cyclohexyl)thiazole-2-carboxamide]
11 | 100 to 500 | ≤ 100 | < 500 | CC(C)Cc1nc2cnc(-c3cccc(F)n3)cc2n1[C@@H]1CCC[C@H](NC(=O)c2ncc(Cl)s2)[C@H]1O [Example 209, 5-chloro-N-((1S,2R,3R)-3-(6-(6-fluoropyridin-2-yl)-2-isobutyl-1H-imidazo[4,5-c]pyridin-1-yl)-2-hydroxycyclohexyl)thiazole-2-carboxamide]
12 | 100 to 500 | ≤ 100 | < 500 | Cc1coc(-c2cc3c(cn2)nc(CC(C)C)n3C2CCCC(NC(=O)c3ncc(Cl)s3)C2O)n1 (stereo not drawn) [Example 211, 5-chloro-N-(2-hydroxy-3-(2-isobutyl-6-(4-methyloxazol-2-yl)-1H-imidazo[4,5-c]pyridin-1-yl)cyclohexyl)thiazole-2-carboxamide]
13 | > 1000 | 100 to 500 | 1000 to 5000 | CC(C)Cc1nc2cnc(-c3cc(C(F)(F)F)n[nH]3)cc2n1[C@@H]1CCC[C@H](NC(=O)c2ncc(Cl)s2)[C@H]1O [Example 216, 5-chloro-N-((1S,2R,3R)-2-hydroxy-3-(2-isobutyl-6-(3-(trifluoromethyl)-1H-pyrazol-5-yl)-1H-imidazo[4,5-c]pyridin-1-yl)cyclohexyl)thiazole-2-carboxamide]
14 | ≤ 100 | ≤ 100 | < 500 | O=C(NC1CCCC(n2c(-c3ncccc3F)nc3cnc(-c4ccccn4)cc32)C1O)c1ncc(Cl)s1 (stereo not drawn) [Example 220, 5-chloro-N-(3-(2-(3-fluoropyridin-2-yl)-6-(pyridin-2-yl)-1H-imidazo[4,5-c]pyridin-1-yl)-2-hydroxycyclohexyl)thiazole-2-carboxamide]
15 | 100 to 500 | ≤ 100 | < 500 | CC(C)Cc1nc2cnc(-n3cc(F)cn3)cc2n1[C@@H]1C[C@@H](O)C[C@H](NC(=O)c2ncc(Cl)s2)C1 [Example 221, 5-chloro-N-((1R,3S,5S)-3-(6-(4-fluoro-1H-pyrazol-1-yl)-2-isobutyl-1H-imidazo[4,5-c]pyridin-1-yl)-5-hydroxycyclohexyl)thiazole-2-carboxamide]
16 | 100 to 500 | ≤ 100 | < 500 | CC(C)Cc1nc2cnc(-c3ccn(C)n3)cc2n1[C@@H]1CCC[C@H](NC(=O)c2ncc(Cl)s2)[C@H]1O [Example 223, 5-chloro-N-((1S,2R,3R)-2-hydroxy-3-(2-isobutyl-6-(1-methyl-1H-pyrazol-3-yl)-1H-imidazo[4,5-c]pyridin-1-yl)cyclohexyl)thiazole-2-carboxamide]
17 | 100 to 500 | ≤ 100 | < 500 | CC(C)Cc1nc2cnc(-c3ccn[nH]3)cc2n1[C@@H]1CCC[C@H](NC(=O)c2ncc(Cl)s2)[C@H]1O [Example 225, 5-chloro-N-((1S,2R,3R)-2-hydroxy-3-(2-isobutyl-6-(1H-pyrazol-5-yl)-1H-imidazo[4,5-c]pyridin-1-yl)cyclohexyl)thiazole-2-carboxamide]
18 | ≤ 100 | ≤ 100 | < 500 | CC(C)Cc1nc2cnc(-n3nccn3)cc2n1[C@@H]1CCC[C@H](NC(=O)c2ncc(Cl)s2)[C@H]1O [Example 227, 5-chloro-N-((1S,2R,3R)-2-hydroxy-3-(2-isobutyl-6-(2H-1,2,3-triazol-2-yl)-1H-imidazo[4,5-c]pyridin-1-yl)cyclohexyl)thiazole-2-carboxamide]
19 | > 1000 | ≤ 100 | 500 to 1000 | CC(C)Cc1nc2cnc(-c3ccn(C(F)F)n3)cc2n1[C@@H]1CCC[C@H](NC(=O)c2ncc(Cl)s2)[C@H]1O [Example 230, 5-chloro-N-((1S,2R,3R)-3-(6-(1-(difluoromethyl)-1H-pyrazol-3-yl)-2-isobutyl-1H-imidazo[4,5-c]pyridin-1-yl)-2-hydroxycyclohexyl)thiazole-2-carboxamide]

— patent US20260159512A1, “BCAT2 INHIBITORS” (AGIOS PHARMACEUTICALS, INC., priority 2021, published 2026)
